# Experimental data taken from patent US9850278B2, “Synthetic anti-inflammatory peptides and use thereof” (CARMEL-HAIFA UNIVERSITY ECONOMIC CORP., priority 2013, dated 2017).
# Entries after “also recorded” stand apart in the source; their conditions may differ.
# Experiments:
# [1] = system: bovine mammary gland epithelial lined cells (BMEC); conditions: reported by Komine et al.; BMEC named for the bovine peptides; cited from earlier work
# [2] = system: IL-6; assay: IL-6 secretion by U937-derived human macrophages, supernatant ELISA; type: cell-based; conditions: for IL-6 secretion, effect of peptide (Example 2, FIG. 4C): peptide 1-1000 μM 24 hrs, then LPS 100 ng/ml 24 hours, FKE effect at low concentrations (1-10 μM), others compared with FKE
# Procedure: (§1) U937 monocytic cells were cultured in 1 ml culture media (RPMI 1640, Biological industries, Beit Haemek), supplemented with 10% Fetal Calf Serum (FCS), 1% pen strep (PS) and 0.04% β-mercaptoethanol) and seeded in 24 well plates (250,000 cells/well). The monocytes underwent differentiation to macrophages with PMA (50 ng/ml) for 48 Hours in a humidified atmosphere (7.5% CO2 at 37° C.). Then the cells were washed using preheated (37° C.) culture medium and synthetic peptides (FKE, SEQ ID NO: 1, or FKD, SEQ ID NO: 3, 0.1-1000 μM) were added to the cells for 24-48 hours. After 24 hours, untreated or peptide-treated cells were activated with lipopolysaccharide (LPS-stimulated, 100 ng/ml for 24 hours). After the indicated incubations, cell free supernatants were collected and their content of IL-10, TGF-β and IL-6 was determined by standard ELISA.
# (§2) The results are presented in FIGS. 1-3 and summarized in Table 1 below (effect considered significant if ±30% of control):
# (§3) U937 monocytic cells were cultured and underwent differentiation to macrophages as described above in Example 1. The cells were then incubated for 24 hrs in the presence of synthetic peptides, at 1-1000 μM: FKE (SEQ ID NO: 1), FKECHLA (SEQ ID NO: 21), FKECH (SEQ ID NO: 4), EKF or YKE (SEQ ID NO: 2). Control cells were left untreated. After 24 hours, untreated or peptide-treated cells were activated with lipopolysaccharide (LPS, 100 ng/ml for 24 hours). Following activation with LPS, cell free supernatants were collected and their content of IL-10, TGF-β, IL-6 and TNF-α was determined by standard ELISA.
# [3] = system: IL-10; assay: IL-10 secretion by U937-derived human macrophages, supernatant ELISA; type: cell-based; conditions: for IL-10 secretion, effect of peptide (Example 2, FIG. 4A): peptide 1-1000 μM 24 hrs, then LPS 100 ng/ml 24 hours, FKE effect at low concentrations (1-10 μM), others compared with FKE; for IL-10 secretion, effect of peptide: significant if ±30% of control
# Procedure: as §1, §2, §3
# [4] = system: TNF-α; assay: TNF-α secretion by LPS-activated U937-derived human macrophages, supernatant ELISA; type: cell-based; conditions: peptide 1-1000 μM 24 hrs, then LPS 100 ng/ml 24 hours; FKE effect at low concentrations (1-10 μM); others compared with FKE
# Procedure: as §3
# [5] = system: TGF-β; assay: TGF-β secretion by U937-derived human macrophages, supernatant ELISA; type: cell-based; conditions: for TGF-β secretion, effect of peptide (Example 2, FIG. 4B): peptide 1-1000 μM 24 hrs, then LPS 100 ng/ml 24 hours, FKE effect at low concentrations (1-10 μM), others compared with FKE
# Procedure: as §1, §2, §3
# [6] = LPS-stimulated macrophages (peptide 24 hrs, then LPS 100 ng/ml 24 hrs)
# [7] = Non-stimulated, 24 hrs, peptide at 1000 μM
# [8] = Non-stimulated, 48 hrs, peptide 0.1-1000 μM
# [9] = peptide at low concentrations (1-10 μM)
substance,measurement,setting,value
"GQKDLLFKDSAI [positions 295-307 of human lactoferrin, Komine et al]","induction of pro-inflammatory cytokines and chemokines (TNF-α, IL-6, IL-8 and MCP-1)",[1],induction
FKECH,"IL-6 secretion, effect of peptide (Example 2, FIG. 4C)",[2],less active than FKE
same,"IL-10 secretion, effect of peptide (Example 2, FIG. 4A)",[3],less active than FKE
same,"TNF-α secretion, effect of peptide (Example 2, FIG. 4D)",[4],pronounced activity in inhibiting
same,"TGF-β secretion, effect of peptide (Example 2, FIG. 4B)",[5],less active than FKE
Phe-Lys-Glu (FKE),"IL-6 secretion, effect of peptide",[2]; [6],No Increase
same,"IL-6 secretion, effect of peptide",[2]; [7],Increase (at
same,"IL-6 secretion, peptide concentration at which increase starts","[2]; Non-stimulated, 48 hrs",at 0.1 μM)
same,"IL-6 secretion, effect of peptide",[2]; [8],Increase (starts
same,"IL-6 secretion, effect of peptide (Example 2, FIG. 4C)",[2],inhibits
same,"IL-10 secretion, effect of peptide",[3]; [6],increased
same,"IL-10 secretion, peptide concentration of maximal effect","[3]; LPS-stimulated, 24 hrs",1 µM
same,"IL-10 secretion, peptide concentration of maximal effect","[3]; Non-stimulated, 24 hrs",10 µM
same,"IL-10 secretion, peptide concentration of maximal effect","[3]; Non-stimulated, 48 hrs",0.1 µM
same,"IL-10 secretion, effect of peptide (Example 2, FIG. 4A)",[3],induces
same,"IL-10 secretion, effect of peptide (Example 1)",[3]; [9],induces
same,"TNF-α secretion, effect of peptide (Example 2, FIG. 4D)",[4],inhibits
same,"TGF-β secretion, peptide concentration of maximal effect","[5]; LPS-stimulated, 24 hrs",100 µM
same,"TGF-β secretion, effect of peptide","[5]; Non-stimulated macrophages, 24 hrs incubation, peptide 0.1-1000 μM, significant if ±30% of control",No effect
same,"TGF-β secretion, peptide concentration of maximal effect","[5]; Non-stimulated, 48 hrs",10 µM
same,"TGF-β secretion, effect of peptide (Example 2, FIG. 4B)",[5],inhibits
same,"TGF-β secretion, effect of peptide (Example 1)",[5]; [9],inhibits
phenylalanine-lysine-aspartic acid [FKD],"IL-6 secretion, effect of peptide",[2]; [6],increased; also recorded: Increase (all conc.)
same,"IL-6 secretion, effect of peptide",[2]; [7],Increase (at
same,"IL-6 secretion, peptide concentration at which increase starts","[2]; Non-stimulated, 48 hrs",at 0.1 μM)
same,"IL-6 secretion, effect of peptide",[2]; [8],Increase
same,IL-6 secretion increase relative to FKE,"[2]; Non-stimulated, 48 hrs, fold of FKE",4 fold
same,"IL-10 secretion, effect of peptide",[3]; [6],decreased; also recorded: Decrease (max at
same,"IL-10 secretion, peptide concentration of maximal effect","[3]; LPS-stimulated, 24 hrs",100 µM
same,"IL-10 secretion, effect of peptide","[3]; Non-stimulated macrophages, 24 hrs incubation, peptide 0.1-1000 μM",Decrease (max at
same,"IL-10 secretion, peptide concentration of maximal effect","[3]; Non-stimulated, 24 hrs",1 µM
same,"IL-10 secretion, peptide concentration of maximal effect","[3]; Non-stimulated, 48 hrs",1000 µM
same,"TGF-β secretion, peptide concentration of maximal effect","[5]; LPS-stimulated, 24 hrs",10 µM
same,"TGF-β secretion, peptide concentration of maximal effect","[5]; Non-stimulated, 24 hrs",1 µM
same,"TGF-β secretion, peptide concentration of maximal effect","[5]; Non-stimulated, 48 hrs",10 µM
"FKECHLA [known bovine lactoferrin-derived synthetic peptide, excluded from Formula I]","IL-6 secretion, effect of peptide (Example 2, FIG. 4C)",[2],reproduced the effects
same,"TNF-α secretion, effect of peptide (Example 2, FIG. 4D)",[4],reproduced the effects
same,"induction of pro-inflammatory cytokines and chemokines (TNF-α, IL-6, IL-8 and MCP-1)",[1],inactive
"GQRDLFKDSAL [bovine counterpart of pep4, Komine et al]","induction of pro-inflammatory cytokines and chemokines (TNF-α, IL-6, IL-8 and MCP-1)",[1],induced
"Tyr-Lys-Glu (YKE) [synthetic tripeptide, from the corresponding position in murine lactoferrin]","IL-6 secretion, effect of peptide (Example 2, FIG. 4C)",[2],reproduced these effects
same,"IL-10 secretion, effect of peptide (Example 2, FIG. 4A)",[3],did not affect
same,"TNF-α secretion, effect of peptide (Example 2, FIG. 4D)",[4],better inhibition
"FKDCHLA [positions 243-249 of human lactoferrin, Komine et al]","induction of pro-inflammatory cytokines and chemokines (TNF-α, IL-6, IL-8 and MCP-1)",[1],induction
Glu-Lys-Phe [EKF],"IL-6 secretion, effect of peptide (Example 2, FIG. 4C)",[2],did not reproduce these effects
same,"IL-10 secretion, effect of peptide (Example 2, FIG. 4A)",[3],did not reproduce these effects
same,"TNF-α secretion, effect of peptide (Example 2, FIG. 4D)",[4],moderate inhibition
same,"TGF-β secretion, effect of peptide (Example 2, FIG. 4B)",[5],did not reproduce these effects
